Test results as given in patent publication US10100284B2, “Method for inducing differentiation of pluripotent stem cells into endodermal cells” (TOAGOSEI CO., LTD., priority 2013, dated 2018).
Where no end group is shown, it is not given here.

Tested on: iPS cells (clone name: 201B2 or 201B7)
Assay: AFP dot blotting of iPS cell culture supernatant
Assay type: cell-based, human
Conditions: peptide concentration 6.0 μM; 8th to 20th day of culture in the presence of the peptide; FIG. 5
Experimental: The stem cell differentiation-inducing activities of the differentiation-inducing synthetic peptides (Samples 2-7) obtained in Example 1 above were evaluated by measuring changes over time in AFP expression levels (typically, extracellular excretion levels). AFP is a differentiation marker protein that is known to be in expressed in cells that have differentiated into liver precursor cells in particular of the endodermal cells. iPS cells that had been cultured and passaged in vitro were used as the test cells. The details of the evaluation test are as follows.
As in Example 3, the peptides of Samples 2 through 7 were added to a peptide concentration of 6.0 μM to added to medium containing cultured iPS cells (clone name: 201B2 or 201B7), and the cells were cultured (Sample Groups 2 through 7). A peptide free-group (comparative example) using cells cultured under the same conditions as in Sample groups 2 through 7 without the addition of a peptide was also established as a control group. […]
After completion of the antigen-antibody reaction with the secondary antibody, Lumina Crescendo Western HRP Substrate (Merck Millipore Corp.) was dripped on the nitrocellulose membrane to react the substrate with the HRP-labeled antibody (secondary antibody), and the target protein (AFP) was detected with a LAS-3000 luminescent image analyzer (Fuji Film).

In the case of “RLLLLLLVGLTAPALAKKRTLRKNDRKKR-COOH (RLLLLLLVGLTAPALAKKRTLRKNDRKKR-OH) [Sample 4]”, the “amount of AFP in the culture supernatant in comparison with peptide-free group with the same culture time” value is reported as “particularly dramatic”.
